The values below come from ChEMBL document CHEMBL4330132, “5-Keto-3-cyano-2,4-diaminothiophenes as selective maternal embryonic leucine zipper kinase inhibitors” (Bioorg Med Chem Lett, 2019).

The target of assay [1] is Mitogen-activated protein kinase kinase kinase kinase 2 (Homo sapiens) (UniProt Q12851). The assay is described as follows: Binding affinity to wild-type human partial length MAP4K2 (M1 to G318 residues) expressed in mammalian expression system assessed as residual binding level at 1 uM by Kinomescan method relative to control.
Assay [2] deals with RAF proto-oncogene serine/threonine-protein kinase (Homo sapiens) (UniProt P04049). The assay is described as follows: Binding affinity to wild-type human partial length RAF1 (I330 to T640 residues) expressed in bacterial expression system assessed as residual binding level at 1 uM by Kinomescan method relative to control.
Assay [3] concerns the target Activin receptor type-1 (Homo sapiens) (UniProt Q04771). The assay is described as follows: Binding affinity to wild-type human ACVR1 (C188 to C509 residues) expressed in bacterial expression system assessed as residual binding level at 1 uM by Kinomescan method relative to control.
Assay [4] deals with Ribosomal protein S6 kinase alpha-6 (Homo sapiens) (UniProt Q9UK32). The assay is described as follows: Binding affinity to wild-type human partial length C-terminal RSK4 kinase domain 2 (I401 to Y711 residues) expressed in bacterial expression system assessed as residual binding level at 1 uM by Kinomescan method relative to control.
In assay [5] the target is Serine/threonine-protein kinase TBK1 (Homo sapiens) (UniProt Q9UHD2). The assay is described as follows: Binding affinity to wild-type human full length TBK1 (M1 to L729 residues) expressed in mammalian expression system assessed as residual binding level at 1 uM by Kinomescan method relative to control.
Assay [6] addresses MAP/microtubule affinity-regulating kinase 4 (Homo sapiens) (UniProt Q96L34). The assay is described as follows: Binding affinity to wild-type human partial length MARK4 (K29 to G340 residues) expressed in bacterial expression system assessed as residual binding level at 1 uM by Kinomescan method relative to control.
For assay [7], the target named is Serine/threonine-protein kinase mTOR (Homo sapiens) (UniProt P42345). The assay is described as follows: Binding affinity to wild-type human partial length MTOR (L1382 to W2549 residues) expressed in mammalian expression system assessed as residual binding level at 1 uM by Kinomescan method relative to control.
In assay [8] the test system is Tyrosine-protein kinase ABL1 (Homo sapiens), P00519 [T315I]. In words: Binding affinity to human phosphorylated ABL1 T315I mutant (S229 to K512 residues) expressed in mammalian expression system assessed as residual binding level at 1 uM by Kinomescan method relative to control.
Assay [9] concerns the target MAP kinase-interacting serine/threonine-protein kinase 1 (Homo sapiens) (UniProt Q9BUB5). In words: Binding affinity to wild-type human full length MKNK1 (M1 to L424 residues) expressed in mammalian expression system assessed as residual binding level at 1 uM by Kinomescan method relative to control.
Assay [10] addresses Phosphatidylinositol 4,5-bisphosphate 3-kinase catalytic subunit gamma isoform (Homo sapiens) (UniProt P48736). The assay is described as follows: Binding affinity to wild-type human partial length PIK3CG (S144 to A1102 residues) expressed in mammalian expression system assessed as residual binding level at 1 uM by Kinomescan method relative to control.
Assay [11] deals with Receptor-interacting serine/threonine-protein kinase 4 (Homo sapiens) (UniProt P57078). The assay is described as follows: Binding affinity to wild-type human partial length RIPK4 (M1 to V303 residues) expressed in mammalian expression system assessed as residual binding level at 1 uM by Kinomescan method relative to control.
Assay [12] has as its target Mitogen-activated protein kinase kinase kinase 19 (Homo sapiens) (UniProt Q56UN5). In words: Binding affinity to wild-type human partial length YSK4 (T1019 to H1328 residues) expressed in mammalian expression system assessed as residual binding level at 1 uM by Kinomescan method relative to control.
Assay [13] addresses Serine/threonine-protein kinase PLK3 (Homo sapiens) (UniProt Q9H4B4). In words: Binding affinity to wild-type human partial length PLK3 (A42 to L334 residues) expressed in mammalian expression system assessed as residual binding level at 1 uM by Kinomescan method relative to control.
Assay [14] concerns the target Casein kinase II subunit alpha' (Homo sapiens) (UniProt P19784). The assay is described as follows: Binding affinity to wild-type human full length CSNK2A2 (M1 to R350 residues) expressed in mammalian expression system assessed as residual binding level at 1 uM by Kinomescan method relative to control.
Assay [15] has as its target Cyclin-dependent kinase 16 (Homo sapiens) (UniProt Q00536). In words: Binding affinity to wild-type human partial length PCTK1 (G160 to A474 residues) expressed in mammalian expression system assessed as residual binding level at 1 uM by Kinomescan method relative to control.
Assay [16] deals with Leucine-rich repeat serine/threonine-protein kinase 2 (Homo sapiens), Q5S007 [G2019S]. In words: Binding affinity to human partial length LRRK2 G2019S mutant (H970 to E2527 residues) expressed in mammalian expression system assessed as residual binding level at 1 uM by Kinomescan method relative to control.
Assay [17] concerns the target Ribosomal protein S6 kinase alpha-1 (Homo sapiens) (UniProt Q15418). The assay is described as follows: Binding affinity to wild-type human partial length C-terminal RSK1 kinase domain 2 (P360 to L681 residues) expressed in bacterial expression system assessed as residual binding level at 1 uM by Kinomescan method relative to control.
Assay [18] has as its target cGMP-dependent protein kinase 1 (Homo sapiens) (UniProt Q13976). The assay is described as follows: Binding affinity to wild-type human partial length PRKG1 (L339 to F686 residues) expressed in bacterial expression system assessed as residual binding level at 1 uM by Kinomescan method relative to control.
The target in assay [19] is Receptor-interacting serine/threonine-protein kinase 1 (Homo sapiens) (UniProt Q13546). In words: Binding affinity to wild-type human partial length RIPK1 (M1 to K305 residues) expressed in bacterial expression system assessed as residual binding level at 1 uM by Kinomescan method relative to control.
Assay [20] deals with Cyclin-dependent kinase-like 1 (Homo sapiens) (UniProt Q00532). The assay is described as follows: Binding affinity to wild-type human full length CDKL1 (M1 to I358 residues) expressed in mammalian expression system assessed as residual binding level at 1 uM by Kinomescan method relative to control.
In assay [21] the target is Tyrosine-protein kinase ITK/TSK (Homo sapiens) (UniProt Q08881). In words: Binding affinity to wild-type human partial length ITK (R335 to L620 residues) expressed in bacterial expression system assessed as residual binding level at 1 uM by Kinomescan method relative to control.
Assay [22] concerns Tyrosine-protein kinase ABL1 (Homo sapiens), P00519 [Y253F]. The assay is described as follows: Binding affinity to human phosphorylated ABL1 Y253F mutant (S229 to K512 residues) expressed in mammalian expression system assessed as residual binding level at 1 uM by Kinomescan method relative to control.
In assay [23] the target is Serine/threonine-protein kinase PAK 2 (Homo sapiens) (UniProt Q13177). The assay is described as follows: Binding affinity to wild-type human partial length PAK2 (P151 to R525 residues) expressed in bacterial expression system assessed as residual binding level at 1 uM by Kinomescan method relative to control.
For assay [24], the target named is Ephrin type-A receptor 7 (Homo sapiens) (UniProt Q15375). The assay is described as follows: Binding affinity to wild-type human partial length EPHA7 (Y608 to S912 residues) expressed in bacterial expression system assessed as residual binding level at 1 uM by Kinomescan method relative to control.

For the compound `CC(C)Nc1sc(C(=O)c2ccc(Cl)s2)c(N)c1C#N`, the Activity was 100% in assay [1]; 71% in assay [2]; 47% in assay [3]; 90% in assay [4]; 97% in assay [5]; 65% in [6]. Also, the Activity in assay [7], in [8], in assay [9], in [10], in [11] and in [12] was 100% each time. Further, the Activity in assay [13] amounted to 85%; in [14], 100%; in assay [15], 100%; in assay [16], 79%; in [17], 85%; in [18], 100%. For the same compound, the Activity in assay [19] came to 100%; in assay [20] it was 100%; in [21], 93%; in assay [22] it was 100%; in assay [23], 75%; in assay [24] it was 82%.
